Where a name gives a salt, the structure may show the parent alone.
Assay: Metabolic stability test using human liver microsome
Assay type: in vitro ADME
Details: human liver microsome 0.25 mg protein/mL, 1 μM test compound, 37° C., after 30 minutes' reaction
Description: Pharmacological Test Example 3 (Metabolic Stability Test) Metabolic stability of test compounds was examined using human liver microsome. A 100 mM potassium phosphate buffer (pH 7.4) comprising 10 mM [MUT], 1.0 mM NADP^+, 10 units/mL [MUT] DH, 3.0 mM MgCl2 and 0.25 mg protein/mL of human liver microsome was prepared, each 392 μL of which was poured into plural vessels and preincubated at 37° C. for 5 minutes. […] At the initiation time and 30 minutes thereafter of the reaction, 150 μL of each reaction solution was added to 450 μL of ethanol to suspend the reaction, followed by centrifugal separation (12,000 g, 12 minutes, 4° C.). Resulting supernatant was analyzed with LC/MS/MS. Based on the peak area of the test compound in each sample at the initiating time of the reaction as 100%, the test compound's residual ratio in the sample after 30 minutes' reaction was calculated. Residual ratio(%)= [peak area(after 30 minutes' reaction)/ peak area(0 minute's reaction)]×100.

## CC(O)(CO)Cn1c(=O)n(C2CCN(CC3CCCCC34CC4)CC2)c2ccccc21 (single isomer, unassigned) [Example 4, 1-[(2S or 2R)-2,3-dihydroxy-2-methylpropyl]-3-{1-[(4S)-spiro[2.5]oct-4-ylmethyl]piperidin-4-yl}-1,3-dihydro-2H-benzimidazol-2-one(2R,3R)-3-carboxy-2,3-dihydroxypropionic acid salt]
  Residual Ratio: 72%
